Data reported in US7598028B2, “Compositions and methods for detecting and treating prostate disorders” (The Regents of the University of Michigan, priority 2006, dated 2009).

Legend:
Assay type in all cases: cell-based, human
N15C6 cells = test: Migratory/invasive response to CXCL5, N15C6 (contemplated); conditions: 2 hours pre-treatment: 100 nM wortmannin, 20 uM LY294002a or 10 mM tyrphostin A9
Experimental: (§1) PC3 cells invaded through Matrigel in response to both CXCL5 and CXCL12. In experiments conducted during the development of embodiments for the present invention, the effect for CXCL12 was abrogated when the cells were pre-treated with antibody against the CXCR4 receptor but not when the cells were treated with the IgG isotype control. […] It is contemplated that PI3K-mediated FAK activation is involved in CXCL5-stimulated epithelial cell migration. Protein purified from cells exposed to CXCL5 using Western blot analysis and antibodies to FAK, Crk, p130Cas, and the phospho-forms of these proteins will be examined. It is contemplated that PI3K signaling involvement in the migratory/invasive response to cytokine stimulation by CXCL5 occurs through, for example, phosphorylation of FAK, Crk and p130Cas. It is contemplated that inhibition of downstream PI3K signaling abrogates the migratory/invasive response of CXCL5. For example, it is contemplated that N15C6 or LNCaP cells pre-treated with PI3K inhibitors (e.g., 100 nM wortmannin or 20 uM LY294002a) or 10 mM of the RAFTK/Pyk2 inhibitor tyrphostin A9 for 2 hours, then exposed to CXCL5 previously shown to stimulate the migratory/invasive response, for 2 hours, abroagates the migratory/invasive response of CXCL5.

LNCaP cells = test: Migratory/invasive response to CXCL5, LNCaP (contemplated); conditions: 2 hours pre-treatment: 100 nM wortmannin, 20 uM LY294002a or 10 mM tyrphostin A9
Experimental: as §1

[1] = system: N15C6 prostate epithelial cells; test: Proliferation assay (cell counts), N15C6; conditions: add back of exogenous chemokine, 96 hours
Experimental: (§2) Proliferation assays. Cellular proliferation was assessed after plating cells at 50 000 cell/well in triplicate in six-well plates and counting cells after 24 and 96 h of incubation in complete media, serum-free media or serum-free prostate stromal fibroblast conditioned media, as described previously (Macoska J A, et al., (2004) Cancer Genet. Cytogenet. 154, 36-43; incorporated herein by reference in its entirety). Averages and standard deviations of cell number were calculated for each time point under each media condition. To assess the effects of exogenous CXCL12 on cellular proliferation, recombinant human SDF1 alpha/CXCL12 (R & D Systems, 350-NS) was added at the desired concentration in 1 mL SF HIE (or 1 mL SF HIE alone for control) to each well. The cells were counted at 24 and 96 h growth and re-fed at 48 and 72 h growth. Cell counts were normalized to 50 000 cells at 24 h to account for any plating discrepancies.
(§3) Proliferation Assays. Cellular proliferation was assessed after plating cells at 50,000 cell/well in triplicate in six well plates and counting cells after 24 and 96 hours of incubation as described previously (see, e.g., Macoska J A, et al., 2004 Cancer Genet. Cytogenet. 154, 36-43; incorporated herein by reference in its entirety). To assess the effects of exogenous CXCL12 on cellular proliferation, recombinant human SDF1 alpha/CXCL12 (R&D Systems, 350-NS) was added at the desired concentration in 1 ml SF HIE (or 1 ml SF HIE alone for control) to each well. The cells were re-fed at 48 and 72 hours growth and counted at 24 and 96 hours growth. Cell counts were normalized to 50,000 cells at 24 hours to account for any plating discrepancies. Averages and standard deviations of cell number were calculated for each time point under each media condition. Experiments utilizing U0126 were performed as above, except that cells were treated after plating for 2 hours with either DMSO (vehicle) or 5 uM U0126 before addition of CXCL12. Cells were maintained in media containing DMSO or U0126 for the entirety of the experiment. For the antibody blockade experiments, cells were plated at 10,000 cells per well in triplicate in 24 well dishes and pre-incubated with mouse IgG2aκ (BD Pharmingen 555571) or mouse anti-CXCR4 (BD Pharmingen 555971) at 1 ug/ml for 1 hour prior to CXCL12 addition. Cells were maintained in media containing appropriate antibodies for the entirety of the experiment, and cells were counted at 24 and 96 hours as above.
(§4) Proliferation Assays. Cellular proliferation was assessed after plating cells at 50,000 cell/well in triplicate in six well plates and counting cells after 24 and 96 hours of incubation as described previously (see, e.g., Begley L, et al., Genes Chromosomes Cancer. 2006 February; 45(2): 136-46; herein incorporated by reference in its entirety). To assess the effects of exogenous CXCL5 on cellular proliferation, recombinant human CXCL5 (R&D Systems, 254-X) was added at the desired concentration in 2 ml SF media (or 2 ml SF media alone for control) to each well. The cells were re-fed at 24 hours growth and counted at 24 and 96 hours growth. Cell counts were normalized to 50,000 cells at 24 hours to account for any plating discrepancies. Averages and standard deviations of cell number were calculated for each time point under each media condition. For the antibody blockade experiments, 10,000 cells per well were plated in triplicate in 24 well dishes and preincubated with mouse anti-human CXCR2 (Biosource AHR1532X) or mouse antihuman CXCR4 (BD Pharmingen 555971) at 1 ug/ml for 1 hour prior to CXCL5 addition. Cells were maintained in media containing appropriate antibodies for the entirety of the experiment and were counted at 24 and 96 hours as above.

[2] = system: LNCaP prostate epithelial cells; test: Proliferation assay (cell counts), LNCaP; conditions: add back of exogenous chemokine, 96 hours
Experimental: as §2, §3, §4

[3] = system: N1 prostate fibroblast cells; test: Proliferation assay, add back, N1 fibroblasts; conditions: add back of exogenous chemokine, 96 hours
Excerpt: FIG. 6C describes how CXCL1, CXCL5, CXCL6, and CXCL12 stimulate N15C6 prostate epithelial cell proliferation, N1 prostate fibroblast cell proliferation, and LNCaP prostate epithelial cell proliferation compared to serum-free (SF HIE) media alone. “Add back” assays were next performed to determine whether the addition of exogenous CXCL1, CXCL5, CXCL6, and CXCL12 to defined, serum-free media induced […] or LNCaP prostate epithelial or N1 fibroblast cell proliferation. For these and all experiments utilizing N15C6 and LNCaP cells, the N15C6 and N1 cells were used between passage 35-45, and LNCaP cells between passages 25-35, for consistency. All recombinant CXC proteins were obtained from R&D systems (e.g., CXCL1, #275-GR, CXCL5, #254-X; CXCL6, #333-GC, and SDF1 alpha/CXCL12, #350-NS). Cells were plated at 50,000 cells/well in triplicate, treated for 96 hours, and counted. […] Moreover, the concentrations for CXCL1, CXCL5, CXCL6 and CXCL12 observed to be growth-stimulatory for prostate epithelial cells were similar to those secreted into the media by older prostate stromal fibroblasts (see, e.g., FIGS. 6A and 6B).

ERK ½ = test: Western blot, ERK phosphorylation in LNCaP cells; conditions: 100 ng/ml EGF or 50 μM CXCL12 (FIG. 19C)
Experimental: Western Blot Analysis. Cells were lysed, proteins resolved by electrophoresis, and electroblotting was carried out as described previously (see, e.g.; Chaib H, et al., 2001 Cancer Res. 61, 2390-2394; incorporated herein by reference in its entirety). Proteins were detected using antibodies against phospho-ERK½ (Cell Signaling #9101), total ERK½ (Cell Signaling #9102), CXCR4 (Abcam #ab2074), Elk-1 (Cell Signaling #9182), Phospho Elk-1 (Cell Signaling #9181), or beta-actin (Santa Cruz #sc-1615), in conjunction with an ECL detection system.
Western Blot and Protein Analysis. Cells were lysed, proteins resolved by electrophoresis, and electroblotting was carried out as described previously except that 20 ug protein was electrophoresed per gel lane for N15C6 cells and 100 ug protein for LNCaP cells (see, e.g., Begley L, et al., Aging Cell. 2005 December; 4(6):291-8; Begley L A, et al., J Biol. Chem. 2007 Sep. 14; 282(37):26767-74; each herein incorporated by reference in their entireties). Proteins were detected using antibodies against phospho-ERK½ (Cell Signaling #9101), total ERK½ (Cell Signaling, #9102), phospho-p65, (Rockland #100-401-264), total p65 (Rockland #100-4165), STAT3 (9139), phospho-STAT3 (9138), beta-actin (Santa Cruz #sc-1615), or tubulin (Upstate, #DM1A) in conjunction with an ECL detection system. Secondary antibodies included goat anti-rabbit (Cell Signaling, #7074) and goat anti-mouse (Santa Cruz, #SC-2005), and both were used at a 1:5000 concentration. Immunoblots shown are representative of triplicate experiments. Densitometric quantitation of immunoblot films was accomplished by scanning the original films and converting the .tiff files to grayscale. Images were inverted, and mean band intensities were measured using ImageJ (www, followed by, .nih.gov). The mean intensity of adjacent background was also measured for each band and subtracted from band intensity.

Compound | effect on migratory/invasive response of CXCL5 (contemplated) (N15C6 cells) | effect on migratory/invasive response of CXCL5 (contemplated) (LNCaP cells) | cell proliferation compared to serum-free (SF HIE) media alone [1] | cell proliferation compared to serum-free (SF HIE) media alone [2] | cell proliferation compared to serum-free (SF HIE) media alone [3] | ERK phosphorylation (pERK) (ERK ½)
O=c1cc(N2CCOCC2)oc2c(-c3ccccc3)cccc12 [LY294002a] | abroagates | abroagates |  |  |  | 
CC(C)(C)c1cc(C=C(C#N)C#N)cc(C(C)(C)C)c1O [tyrphostin A9] | abroagates | abroagates |  |  |  | 
CXCL1: recombinant CXC protein from R&D systems, #275-GR |  |  | stimulate | stimulate | stimulate | 
CXCL6: recombinant CXC protein from R&D systems, #333-GC |  |  | stimulate | stimulate | stimulate | 
EGF: epidermal growth factor, used at 100 ng/ml |  |  |  |  |  | minimal
